This note sets out measurements from US6482799B1, “Self-preserving multipurpose ophthalmic solutions incorporating a polypeptide antimicrobial” (The Regents of the University of California, priority 1999, dated 2002).

The subject of one assay is S. aureus (ATCC 6538). Briefly: Protocol 1 kill curve / MIC, 1 hour at 37° C. Particulars: 10 mM sodium phosphate buffer. It counts as cell-based, Staphylococcus aureus. The protocol:
This protocol is used to develop dose-response (kill) curves to calculate the minimal inhibitory concentration of an indolicidin (e.g., L-indolicidin (L-IND)) when formulated in a commercially available phosphate buffered saline (PBS) solution. In addition, for comparative purposes, kill curves are established for the following three commonly available commercial lens-care products containing different preservatives:
The stock solutions are diluted in a 2-fold fashion by transferring 1 ml of each stock solution to 1 ml of appropriate diluent in sterile glass tubes (100×13 mm). Twelve additional 2-fold dilutions are made by transferring 1 ml aliquots of each dilution to 1 ml diluent. The diluent for all commercial lens-care products is PBS. […]
Viable counts of the bacteria are performed by 10-fold serial dilutions in sterile PBS and by plating 0.1 ml aliquots on nutrient agar plates. […] The plates are incubated overnight at 37° C. and colonies are counted and recorded. […]
Survival is expressed as number of surviving bacteria (CFU/ml) for each dilution of the test article and control solutions. The lowest dose of the test article that results in complete kill of the test organism, compared to the non-exposed control, is determined to be the MIC value. […]

The test system of the next assay is S. aureus ATCC 6538. Briefly: Protocol 3 time-dependent antimicrobial activity at one dose level. The assay is classed as cell-based, Staphylococcus aureus. The settings on record: 50 μg/ml, 10 mM sodium phosphate buffer pH 7.4, 1, 2, 5 and 15 minutes, room temperature. The method, then: The objective of this protocol is to establish a procedure for determining the antimicrobial activity of indolicidin (e.g., L-IND) at 50 μg/ml over an extended exposure time up to 24 hours at room temperature. It is believed that this procedure more closely mimics the recommended use of lens-care products.
Exposure of the test organism to indolicidin occurs in a buffered solution for up to 24 hours with sampling for viability at different time intervals. Polypropylene 96-well microtiter plates and microcentrifuge tubes are used for exposure and dilution of indolicidin, respectively.
The following materials are used: sterile glass tubes containing 5 ml of Mueller-Hinton Broth (MHB), Mueller-Hinton agar plates, sterile 96-well polypropylene microtiter plates, and sterile polypropylene microcentrifuge tubes.
One or more of the following microorganisms are used in assays using this protocol or modification of this protocol: Pseudomonas aeruginosa (ATCC 9027), Pseudomonas aeruginosa (ATCC 27853), and S. aureus (ATCC 6538).
Five 5 ml of MHB tubes are innoculated with the tester strain(s) from MHA plates and grown overnight at 37° C. on a shaker (180 rpm). […]
Survival is determined by counting the colonies appearing on plates after overnight incubation at 37° C. The results are expressed as CFU/ml and survival is expressed as the percent of the bacteria that survived the treatment. […]

Compound `CC[C@H](C)[C@H](N)C(=O)N[C@@H](CC(C)C)C(=O)N1CCC[C@H]1C(=O)N[C@@H](Cc1c[nH]c2ccccc12)C(=O)N[C@@H](CCCCN)C(=O)N[C@@H](Cc1c[nH]c2ccccc12)C(=O)N1CCC[C@H]1C(=O)N[C@@H](Cc1c[nH]c2ccccc12)C(=O)N[C@@H](Cc1c[nH]c2ccccc12)C(=O)N1CCC[C@H]1C(=O)N[C@@H](Cc1c[nH]c2ccccc12)C(=O)N[C@@H](CCCNC(=N)N)C(=O)N[C@@H](CCCNC(=N)N)C(N)=O` [L-indolicidin, H2N-ILPWKWPWWPWRR-CONH2] showed a log kill in the assay with S. aureus (ATCC 6538) (6.25 μg/ml) of approximately 3 log. Besides, the survival result in the assay with S. aureus (ATCC 6538) (100, 50, 25 and 12.5 μg/ml, 4.1×10^5 CFU/ml) was “no detectable survival”; in the assay on S. aureus ATCC 6538, “no survival”.
